Measured values published in patent US9738652B2, “Spiro urea compounds as RSV antiviral compounds” (priority 2014, dated 2017).

Legend:
rgRSV224 virus = experiment: Antiviral activity: rgRSV224 (GFP) replication in HeLa cells; details: human respiratory syncytial virus, 72 h, read-out: RSV HELA pEC50 (converted)
Experimental: Black 384-well clear-bottom microtiter plates (Corning, Amsterdam, The Netherlands) were filled via acoustic drop ejection using the echo liquid handler (Labcyte, Sunnyvale, Calif.). 200 nL of compound stock solutions (100% DMSO) were transferred to the assay plates. 9 serial 4-fold dilutions of compound were made, creating per quadrant the same compound concentration. The assay was initiated by adding 10 μL of culture medium to each well (RPMI medium without phenol red, 10% FBS-heat inactivated, 0.04% gentamycin (50 mg/mL). All addition steps are done by using a multidrop dispenser (Thermo Scientific, Erembodegem, Belgium). Next, rgRSV224 virus (MOI=1) diluted in culture medium was added to the plates. rgRSV224 virus is an engineered virus that includes an additional GFP gene (Hallak L K, Spillmann D, Collins P L, Peeples M E. Glycosaminoglycan sulfation requirements for respiratory syncytial virus infection; Journal of virology (2000), 74(22), 10508-13) and was in-licensed from the NIH (Bethesda, Md., USA). Finally, 20 μL of a HeLa cell suspension (3,000 cells/well) were plated. Medium, virus- and mock-infected controls were included in each test. The wells contain 0.05% DMSO per volume. Cells were incubated at 37° C. in a 5% CO2 atmosphere. Three days post-virus exposure, viral replication was quantified by measuring GFP expression in the cells by an in house developed MSM laser microscope (Tibotec, Beerse, Belgium). The EC50 was defined as the 50% inhibitory concentration for GFP expression. In parallel, compounds were incubated for three days in a set of white 384-well microtiter plates (Corning) and the cytotoxicity of compounds in HeLa cells was determined by measuring the ATP content of the cells using the ATPlite kit (Perkin Elmer, Zaventem, Belgium) according to the manufacturer's instructions. The CC50 was defined as the 50% concentration for cytotoxicity.

[1] = Cytotoxicity in HeLa cells (ATPlite, CC50) used for selectivity index; details: human
Experimental: The wells contain 0.05% DMSO per volume. Cells were incubated at 37° C. in a 5% CO2 atmosphere. […] In parallel, compounds were incubated for three days in a set of white 384-well microtiter plates (Corning) and the cytotoxicity of compounds in HeLa cells was determined by measuring the ATP content of the cells using the ATPlite kit (Perkin Elmer, Zaventem, Belgium) according to the manufacturer's instructions. The CC50 was defined as the 50% concentration for cytotoxicity.

SMILES	EC50 (rgRSV224 virus)	selectivity ratio at 3 days [1]
CC(C)NC(=O)N1CC2(C1)C(=O)N(Cc1cc3cc(Cl)ccc3n1CCCS(C)(=O)=O)c1ccccc12 [Co. No. 1, 1′-[[5-chloro-1-(3-methylsulfonylpropyl)indol-2-yl]methyl]-N-isopropyl-2′-oxo-spiro[azetidine-3,3′-indoline]-1-carboxamide]	0.0891 nM	357000
CC(C)(C)OC(=O)N1CCC(NC(=O)N2CC3(C2)C(=O)N(Cc2cc4cc(Cl)ccc4n2CCCC#N)c2ccccc23)CC1 [Co. No. 2, tert-butyl 4-[[1′-[[5-chloro-1-(3-cyanopropyl)indol-2-yl]methyl]-2′-oxo-spiro[azetidine-3,3′-indoline]-1-carbonyl]amino]piperidine-1-carboxylate]	2 nM	> 50000
N#CCCCn1c(CN2C(=O)C3(CN(C(=O)NC4CCNCC4)C3)c3ccccc32)cc2cc(Cl)ccc21 [Co. No. 3, 1′-[[5-chloro-1-(3-cyanopropyl)indol-2-yl]methyl]-2′-oxo-N-(4-piperidyl)spiro[azetidine-3,3′-indoline]-1-carboxamide]	0.631 nM	158000
N#CCCCn1c(CN2C(=O)C3(CN(C(=O)NC4CCN(CC(F)(F)F)CC4)C3)c3ccccc32)cc2cc(Cl)ccc21 [Co. No. 4, 1′-[[5-chloro-1-(3-cyanopropyl)indol-2-yl]methyl]-2′-oxo-N-[1-(2,2,2-trifluoroethyl)-4-piperidyl]spiro[azetidine-3,3′-indoline]-1-carboxamide]	1 nM	100000
CN1CCC(NC(=O)N2CC3(C2)C(=O)N(Cc2cc4cc(Cl)ccc4n2CCCC#N)c2ccccc23)CC1 [Co. No. 5, 1′-[[5-chloro-1-(3-cyanopropyl)indol-2-yl]methyl]-N-(1-methyl-4-piperidyl)-2′-oxo-spiro[azetidine-3,3′-indoline]-1-carboxamide]	3.16 nM	10000
N#CCCCn1c(CN2C(=O)C3(CN(C(=O)NC4CCOCC4)C3)c3ccccc32)cc2cc(Cl)ccc21 [Co. No. 6, 1′-[[5-chloro-1-(3-cyanopropyl)indol-2-yl]methyl]-2′-oxo-N-tetrahydropyran-4-yl-spiro[azetidine-3,3′-indoline]-1-carboxamide]	0.316 nM	100000
N#CCCCn1c(CN2C(=O)C3(CN(C(=O)NC4CC(O)C4)C3)c3ccccc32)cc2cc(Cl)ccc21 (stereo not shown) [Co. No. 7, 1′-[[5-chloro-1-(3-cyanopropyl)indol-2-yl]methyl]-N-(3-hydroxycyclobutyl)-2′-oxo-spiro[azetidine-3,3′-indoline]-1-carboxamide]	0.407 nM	103000
N#CCCCn1c(CN2C(=O)C3(CN(C(=O)N[C@H]4C[C@@H](O)C4)C3)c3ccccc32)cc2cc(Cl)ccc21 [Co. No. 8, 1′-[[5-chloro-1-(3-cyanopropyl)indol-2-yl]methyl]-N-(cis-3-hydroxycyclobutyl)-2′-oxo-spiro[azetidine-3,3′-indoline]-1-carboxamide]	< 0.153 nM	> 232000
N#CCCCn1c(CN2C(=O)C3(CN(C(=O)N[C@H]4C[C@H](O)C4)C3)c3ccccc32)cc2cc(Cl)ccc21 [Co. No. 9, 1′-[[5-chloro-1-(3-cyanopropyl)indol-2-yl]methyl]-N-(trans-3-hydroxycyclobutyl)-2′-oxo-spiro[azetidine-3,3′-indoline]-1-carboxamide]	< 0.153 nM	> 254000
CS(=O)(=O)CCCn1c(CN2C(=O)C3(CN(C(=O)N[C@H]4C[C@@H](O)C4)C3)c3ccccc32)cc2cc(Cl)ccc21 [Co. No. 10, 1′-[[5-chloro-1-(3-methylsulfonylpropyl)indol-2-yl]methyl]-N-(cis-3-hydroxycyclobutyl)-2′-oxo-spiro[azetidine-3,3′-indoline]-1-carboxamide]	< 0.17 nM	> 505000
CS(=O)(=O)CCCn1c(CN2C(=O)C3(CN(C(=O)N[C@H]4C[C@H](O)C4)C3)c3ccccc32)cc2cc(Cl)ccc21 [Co. No. 11, 1′-[[5-chloro-1-(3-methylsulfonylpropyl)indol-2-yl]methyl]-N-(trans-3-hydroxycyclobutyl)-2′-oxo-spiro[azetidine-3,3′-indoline]-1-carboxamide]	0.245 nM	300000
CS(=O)(=O)CCCn1c(CN2C(=O)C3(CN(C(=O)NCC(F)(F)F)C3)c3ccccc32)cc2cc(Cl)ccc21 [Co. No. 12, 1′-[[5-chloro-1-(3-methylsulfonylpropyl)indol-2-yl]methyl]-2′-oxo-N-(2,2,2-trifluoroethyl)spiro[azetidine-3,3′-indoline]-1-carboxamide]	0.269 nM	86900
CC(C)(CO)NC(=O)N1CC2(C1)C(=O)N(Cc1cc3cc(Cl)ccc3n1CCCS(C)(=O)=O)c1ccccc12 [Co. No. 13, 1′-[[5-chloro-1-(3-methylsulfonylpropyl)indol-2-yl]methyl]-N-(2-hydroxy-1,1-dimethyl-ethyl)-2′-oxo-spiro[azetidine-3,3′-indoline]-1-carboxamide]	1 nM	43400
CC(CO)NC(=O)N1CC2(C1)C(=O)N(Cc1cc3cc(Cl)ccc3n1CCCS(C)(=O)=O)c1ccccc12 (stereo not shown) [Co. No. 14, 1′-[[5-chloro-1-(3-methylsulfonylpropyl)indol-2-yl]methyl]-N-(2-hydroxy-1-methyl-ethyl)-2′-oxo-spiro[azetidine-3,3′-indoline]-1-carboxamide]	0.575 nM	98200
CN(C)CCN(C)C(=O)N1CC2(C1)C(=O)N(Cc1cc3cc(Cl)ccc3n1CCCS(C)(=O)=O)c1ccccc12 [Co. No. 15, 1′-[[5-chloro-1-(3-methylsulfonylpropyl)indol-2-yl]methyl]-N-[2-(dimethylamino)ethyl]-N-methyl-2′-oxo-spiro[azetidine-3,3′-indoline]-1-carboxamide]	7.59 nM	2570
CS(=O)(=O)CCCn1c(CN2C(=O)C3(CN(C(=O)NCCN4CCOCC4)C3)c3ccccc32)cc2cc(Cl)ccc21 [Co. No. 16, 1′-[[5-chloro-1-(3-methylsulfonylpropyl)indol-2-yl]methyl]-N-(2-morpholinoethyl)-2′-oxo-spiro[azetidine-3,3′-indoline]-1-carboxamide]	0.339 nM	159000
CN(C)CCNC(=O)N1CC2(C1)C(=O)N(Cc1cc3cc(Cl)ccc3n1CCCS(C)(=O)=O)c1ccccc12 [Co. No. 17, 1′-[[5-chloro-1-(3-methylsulfonylpropyl)indol-2-yl]methyl]-N-[2-(dimethylamino)ethyl]-2′-oxo-spiro[azetidine-3,3′-indoline]-1-carboxamide]	1.26 nM	39300
CC(C)NC(=O)N1CC2(C1)C(=O)N(Cc1nc3cc(Cl)ccc3n1CCCS(C)(=O)=O)c1ccccc12 [Co. No. 18, 1′-[[5-chloro-1-(3-methylsulfonylpropyl)benzimidazol-2-yl]methyl]-N-isopropyl-2′-oxo-spiro[azetidine-3,3′-indoline]-1-carboxamide]	0.0204 nM	> 4.93e+06
CC(C)NC(=O)N1CC2(C1)C(=O)N(Cc1nc3cc(Cl)ccc3n1CCCC#N)c1ccccc12 [Co. No. 19, 1′-[[5-chloro-1-(3-cyanopropyl)benzimidazol-2-yl]methyl]-N-isopropyl-2′-oxo-spiro[azetidine-3,3′-indoline]-1-carboxamide]	0.0912 nM	> 1.11e+06
CC(C)NC(=O)N1CC2(C1)C(=O)N(Cc1nc3nc(Cl)ccc3n1CCCCF)c1ccccc12 [Co. No. 20, 1′-[[5-chloro-1-(4-fluorobutyl)imidazo[4,5-b]pyridin-2-yl]methyl]-N-isopropyl-2′-oxo-spiro[azetidine-3,3′-indoline]-1-carboxamide]	1.26 nM	> 80200
O=C(NC1CC(O)C1)N1CC2(C1)C(=O)N(Cc1nc3nc(Cl)ccc3n1CCCCF)c1ccccc12 (stereo not shown) [Co. No. 21, 1′-[[5-chloro-1-(4-fluorobutyl)imidazo[4,5-b]pyridin-2-yl]methyl]-N-(3-hydroxycyclobutyl)-2′-oxo-spiro[azetidine-3,3′-indoline]-1-carboxamide]	1.41 nM	> 71400
O=C(NC1CCOCC1)N1CC2(C1)C(=O)N(Cc1nc3nc(Cl)ccc3n1CCCC(F)(F)F)c1ccccc12 [Co. No. 23, 1′-[[5-chloro-1-(4,4,4-trifluorobutyl)imidazo[4,5-b]pyridin-2-yl]methyl]-2′-oxo-N-tetrahydropyran-4-yl-spiro[azetidine-3,3′-indoline]-1-carboxamide]	1.62 nM	> 61800
O=C(NC1CC(O)C1)N1CC2(C1)C(=O)N(Cc1nc3nc(Cl)ccc3n1CCCC(F)(F)F)c1ccccc12 (stereo not shown) [Co. No. 24, 1′[[5-chloro-1-(4,4,4-trifluorobutyl)imidazo[4,5-b]pyridin-2-yl]methyl]-N-(3-hydroxycyclobutyl)-2′-oxo-spiro[azetidine-3,3′-indoline]-1-carboxamide]	1.32 nM	> 75400
CNC(=O)N1CCC2(CC1)C(=O)N(Cc1cc3cc(Cl)ccc3n1CCCC#N)c1cnccc12 [Co. No. 25, 1′-[[5-chloro-1-(3-cyanopropyl)indol-2-yl]methyl]-N-methyl-2′-oxo-spiro[piperidine-4,3′-pyrrolo[2,3-c]pyridine]-1-carboxamide]	0.178 nM	> 565000
CC(C)NC(=O)N1CCC2(CC1)C(=O)N(Cc1cc3cc(Cl)ccc3n1CCCS(C)(=O)=O)c1cnccc12 [Co. No. 27, 1′-[[5-chloro-1-(3-methylsulfonylpropyl)indol-2-yl]methyl]-N-isopropyl-2′-oxo-spiro[piperidine-4,3′-pyrrolo[2,3-c]pyridine]-1-carboxamide]	0.257 nM	300000
CC(C)NC(=O)N1CCC2(CC1)C(=O)N(Cc1cc3cc(Cl)ccc3n1CCCC#N)c1cnccc12 [Co. No. 28, 1′-[[5-chloro-1-(3-cyanopropyl)indol-2-yl]methyl]-N-isopropyl-2′-oxo-spiro[piperidine-4,3′-pyrrolo[2,3-c]pyridine]-1-carboxamide]	2.14 nM	25400
